Test results from publication PMC8286840, “Identifying SARS-CoV-2 antiviral compounds by screening for small molecule inhibitors of Nsp3 papain-like protease” (Biochemical Journal, 2021).
Counter-ions that a name gives are not always drawn. Like-named read-outs stand apart in the source and are kept apart here.

What was measured:
[1] = molecular target: T1, SARS-CoV-2 PLpro (nsp3 1564–1878) (Severe acute respiratory syndrome coronavirus 2, UniProt P0DTD1); assay: biochemical; design: FRET-quenched peptide (Pro3) cleavage by PLpro, 10 min pre-incubation, slope over 20 min, normalised to no-compound control; conditions: high concentration screen, read-out: % of control remaining
[2] = molecular target: T1, SARS-CoV-2 PLpro (nsp3 1564–1878); assay: biochemical; design: FRET-quenched peptide (Pro3) cleavage by PLpro, 10 min pre-incubation, slope over 20 min, normalised to no-compound control; conditions: low concentration screen, read-out: % of control remaining

Compound: CCOC(=O)C1=Cc2ccc(C(F)(F)C(F)(F)F)cc2N=C(N)C1 [Toll-like receptor modulator]
- remaining activity at 3.75 µM ([1]; Well no.=8077): 95.6%
- remaining activity at 1.25 µM ([2]; Well no.=8077): 108%

Compound: Cc1ccc(C(=O)c2ccc(CC(=O)O)n2C)cc1 [Tolmetin]
- remaining activity at 3.75 µM ([1]; Well no.=1998): 101%
- remaining activity at 1.25 µM ([2]; Well no.=1998): 101%

Compound: Cc1cccc(N(C)C(=S)Oc2ccc3ccccc3c2)c1 [Tolnaftate]
- remaining activity at 3.75 µM ([1]; Well no.=4720): 106%
- remaining activity at 1.25 µM ([2]; Well no.=4720): 105%

Compound: Cc1ccc(C(=O)C(C)CN2CCCCC2)cc1 (stereo not shown) [Tolperisone (hydrochloride)]
- remaining activity at 3.75 µM ([1]; Well no.=7498): 100%
- remaining activity at 1.25 µM ([2]; Well no.=7498): 99%

Compound: Cc1ccc(O)c([C@H](CCN(C(C)C)C(C)C)c2ccccc2)c1 [Tolterodine tartrate (Detrol LA)]
- remaining activity at 3.75 µM ([1]; Well no.=4918): 94.6%
- remaining activity at 1.25 µM ([2]; Well no.=4918): 98%

Compound: Cc1cc(-n2c(=O)[nH]c(=O)n(C)c2=O)ccc1Oc1ccc(SC(F)(F)F)cc1 [Toltrazuril]
- remaining activity at 3.75 µM ([1]; Well no.=4692): 102%
- remaining activity at 1.25 µM ([2]; Well no.=4692): 110%

Compound: Cc1ccccc1C(=O)Nc1ccc(C(=O)N2CCCC(O)c3cc(Cl)ccc32)c(C)c1 (stereo not shown) [Tolvaptan]
- remaining activity at 3.75 µM ([1]; Well no.=7517): 95.6%
- remaining activity at 3.75 µM ([1]; Well no.=8388): 97.5%
- remaining activity at 1.25 µM ([2]; Well no.=7517): 102%
- remaining activity at 1.25 µM ([2]; Well no.=8388): 97.7%

Compound: C[C@H]1CC[C@]2(NC1)O[C@H]1C[C@H]3[C@@H]4CC[C@H]5C[C@@H](O)CC[C@]5(C)[C@H]4CC[C@]3(C)[C@H]1[C@@H]2C [Tomatidine]
- remaining activity at 3.75 µM ([1]; Well no.=3186): 99.4%
- remaining activity at 1.25 µM ([2]; Well no.=3186): 94.5%

Compound: CNCC[C@@H](Oc1ccccc1C)c1ccccc1 [Tomoxetine]
- remaining activity at 3.75 µM ([1]; Well no.=1182): 95.7%
- remaining activity at 1.25 µM ([2]; Well no.=1182): 99.4%

Compound: CC(=O)c1ccc2c(c1)[C@H](NC(=O)c1ccc(F)c(Cl)c1)[C@H](O)C(C)(C)O2 [Tonabersat]
- remaining activity at 3.75 µM ([1]; Well no.=5960): 94.8%
- remaining activity at 1.25 µM ([2]; Well no.=5960): 92.7%

Compound: CC1(C)O[C@@H]2[C@@H](CO[C@@]3(COS(N)(=O)=O)OC(C)(C)O[C@@H]23)O1 [Topiramate]
- remaining activity at 3.75 µM ([1]; Well no.=4853): 104%
- remaining activity at 3.75 µM ([1]; Well no.=7527): 100%
- remaining activity at 1.25 µM ([2]; Well no.=4853): 101%
- remaining activity at 1.25 µM ([2]; Well no.=7527): 102%

Compound: N#Cc1cc(-c2n[nH]c(-c3ccncc3)n2)ccn1 [Topiroxostat]
- remaining activity at 3.75 µM ([1]; Well no.=8440): 97.1%
- remaining activity at 1.25 µM ([2]; Well no.=8440): 96.2%

Compound: CC[C@@]1(O)C(=O)OCc2c1cc1n(c2=O)Cc2cc3c(CN(C)C)c(O)ccc3nc2-1 [Topotecan hydrochloride hydrate]
- remaining activity at 3.75 µM ([1]; Well no.=6019): 99%
- remaining activity at 1.25 µM ([2]; Well no.=6019): 103%

Compound: CC[C@@]1(O)C(=O)OCc2c1cc1n(c2=O)Cc2cc3c(CN(C)C)c(O)ccc3nc2-1 [Topotecan.HCl]
- remaining activity at 3.75 µM ([1]; Well no.=1964): 97.5%
- remaining activity at 1.25 µM ([2]; Well no.=1964): 98.5%

Compound: CCOC(=O)N1c2ccc(C(F)(F)F)cc2[C@@H](N(Cc2cc(C(F)(F)F)cc(C(F)(F)F)c2)C(=O)OC)C[C@H]1CC [Torcetrapib (CP-529414)]
- remaining activity at 3.75 µM ([1]; Well no.=4749): 98.1%
- remaining activity at 1.25 µM ([2]; Well no.=4749): 95.8%

Compound: CN(C)CCOc1ccc(/C(=C(/CCCl)c2ccccc2)c2ccccc2)cc1 [Toremifene]
- remaining activity at 3.75 µM ([1]; Well no.=1966): 102%
- remaining activity at 1.25 µM ([2]; Well no.=1966): 104%

Compound: CCC(=O)N1CCN(c2ccc(-n3c(=O)ccc4cnc5ccc(-c6cnc7ccccc7c6)cc5c43)cc2C(F)(F)F)CC1 [Torin 1]
- remaining activity at 3.75 µM ([1]; Well no.=4795): 102%
- remaining activity at 1.25 µM ([2]; Well no.=4795): 106%

Compound: Nc1ccc(-c2ccc3ncc4ccc(=O)n(-c5cccc(C(F)(F)F)c5)c4c3c2)cn1 [Torin 2]
- remaining activity at 3.75 µM ([1]; Well no.=4787): 97.9%
- remaining activity at 1.25 µM ([2]; Well no.=4787): 95.6%

Compound: CC(C)C[C@@H](C(=O)N[C@H](C(=O)OC1CCCC1)c1ccccc1)[C@H](O)C(=O)NO [Tosedostat (CHR2797)]
- remaining activity at 3.75 µM ([1]; Well no.=4880): 88.9%
- remaining activity at 1.25 µM ([2]; Well no.=4880): 93.4%

Compound: NC1CCN(c2nc3c(cc2F)c(=O)c(C(=O)O)cn3-c2ccc(F)cc2F)C1 (stereo not shown) [Tosufloxacin]
- remaining activity at 3.75 µM ([1]; Well no.=1962): 93.3%
- remaining activity at 1.25 µM ([2]; Well no.=1962): 98.1%

Compound: COc1ccc(N2CCOCC2)c2sc(NC(=O)N3CCC(C)(O)CC3)nc12 [Tozadenant]
- remaining activity at 3.75 µM ([1]; Well no.=7049): 100%
- remaining activity at 3.75 µM ([1]; Well no.=8115): 102%
- remaining activity at 1.25 µM ([2]; Well no.=7049): 103%
- remaining activity at 1.25 µM ([2]; Well no.=8115): 99%

Compound: Cc1cc(Nc2cc(N3CCN(C)CC3)nc(Sc3ccc(NC(=O)C4CC4)cc3)n2)n[nH]1 [Tozasertib]
- remaining activity at 3.75 µM ([1]; Well no.=2895): 103%
- remaining activity at 1.25 µM ([2]; Well no.=2895): 101%

Compound: N#Cc1cnc2cnc(NCc3cccnc3)cc2c1Nc1ccc(F)c(Cl)c1 [Tpl2 Kinase Inhibitor]
- remaining activity at 3.75 µM ([1]; Well no.=2662): 89.7%
- remaining activity at 1.25 µM ([2]; Well no.=2662): 92.4%

Compound: CCCCNc1c(C(=O)OCC)c(C)nc2c1cnn2CC [Tracazolate]
- remaining activity at 3.75 µM ([1]; Well no.=1472): 93.7%
- remaining activity at 1.25 µM ([2]; Well no.=1472): 93.2%

Compound: COc1cccc([C@@]2(O)CCCC[C@@H]2CN(C)C)c1 [Tramadol]
- remaining activity at 3.75 µM ([1]; Well no.=2002): 104%
- remaining activity at 1.25 µM ([2]; Well no.=2002): 104%

Compound: NC[C@H]1CC[C@H](C(=O)O)CC1 [Tranexamic acid]
- remaining activity at 3.75 µM ([1]; Well no.=1816): 99.8%
- remaining activity at 1.25 µM ([2]; Well no.=1816): 97.3%

Compound: COc1ccc(/C=C/C(=O)Nc2ccccc2C(=O)O)cc1OC [Tranilast (trans-)]
- remaining activity at 3.75 µM ([1]; Well no.=7917): 92%
- remaining activity at 1.25 µM ([2]; Well no.=7917): 92.9%

Compound: COc1ccc(/C=C/C(=O)Nc2ccccc2C(=O)O)cc1OC [Tranilast]
- remaining activity at 3.75 µM ([1]; Well no.=1519): 94.6%
- remaining activity at 3.75 µM ([1]; Well no.=1807): 96.1%
- remaining activity at 3.75 µM ([1]; Well no.=6317): 97.4%
- remaining activity at 1.25 µM ([2]; Well no.=1519): 95.4%
- remaining activity at 1.25 µM ([2]; Well no.=1807): 96.3%
- remaining activity at 1.25 µM ([2]; Well no.=6317): 104%

Compound: CN1C(=O)C[C@H](C(=O)O)[C@H]1c1cccnc1 [Trans-4-Cotininecarboxylic acid]
- remaining activity at 3.75 µM ([1]; Well no.=3200): 97.7%
- remaining activity at 1.25 µM ([2]; Well no.=3200): 95.4%

Compound: N[C@@H]1C[C@H]1c1ccccc1 [Tranylcypromine hydrochloride]
- remaining activity at 3.75 µM ([1]; Well no.=1399): 105%
- remaining activity at 1.25 µM ([2]; Well no.=1399): 100%

Compound: O=c1n(CCCN2CCN(c3cccc(Cl)c3)CC2)nc2ccccn12 [Trazodone (hydrochloride)]
- remaining activity at 3.75 µM ([1]; Well no.=7432): 111%
- remaining activity at 1.25 µM ([2]; Well no.=7432): 109%

Compound: O=c1n(CCCN2CCN(c3cccc(Cl)c3)CC2)nc2ccccn12 [Trazodone hydrochloride]
- remaining activity at 3.75 µM ([1]; Well no.=1339): 104%
- remaining activity at 1.25 µM ([2]; Well no.=1339): 102%

Compound: Cn1c(=O)cc(N2CCC[C@@H](N)C2)n(Cc2cc(F)ccc2C#N)c1=O [Trelagliptin]
- remaining activity at 3.75 µM ([1]; Well no.=8480): 98.9%
- remaining activity at 1.25 µM ([2]; Well no.=8480): 99.1%
